In brackets after ≈: the same amount, converted by molar mass.
Key:
Water Solubility Assay = type: physicochemical; conditions: Milli Q water, room temperature, stirred 3 hours, HPLC; for solubility at 3 h: water, thermodynamic from solid
Description: The sample suspension was stirred at room temperature for 3 hours. The suspension was transferred into an eppendorf vial and centrifuged at 14000 rpm for 8 minutes. The supernant solution was then assayed by HPLC.
The suspension was stirred at room temperature for 3 hours and then centrifuged at 14000/min for 8 minutes. The supernant was diluted 10 times by Milli Q water. The final solution was then assayed by HPLC.
Accurately weigh out 2.5-3.0 mg of AG014447 reference standard into 10 ml volumetric flask, and then bring to volume with MeOH. Mix thoroughly.
Buffer: 25 mM ammonium phosphate buffer (pH 2.5)
Organic Modifier: Acetonitrile (ACN)
Column: Waters Symmetry C18, 4.6×150 mm, 5 μm;
The solubility of the sample is calculated by the equation below: […]
Where A is the peak area of the sample; As is the peak area of the standard; Cs is the concentration of the standard solution; D is the dilution factor. [drawing 2]

A549 cells = assay: Cytotoxicity Potentiation Assay; type: cell-based; conditions: test compound 0.4 μm, with topotecan, ratio of IC50 of topotecan alone to IC50 in combination
Description: Cytotoxicity Potentiation Assay: A549 cells (ATCC, Rockville, Md.) were seeded into 96-well cell culture plates (Falcon brand, Fisher Scientific, Pittsburgh, Pa.) 16 to 24 hours before experimental manipulation. Cells were then treated with a test compound (or a combination of test compounds where indicated) for either 3 days or 5 days, at a concentration of 0.4 μm. At the end of treatments, relative cell number was determined either by MTT assay or SRB assay. For the MTT assay, 0.2 μg/μl of MTT (3-(4,5-dimethylthiazol-2-yl)-2,5-diphenyltetrazolium bromide, Sigma Chemical Co., St. Louis, Mo.) was added to each well of a plate, and the plate was incubated in a cell-culture incubator for 4 hours. Metabolized MTT in each well was solubilized in 150 μl of DMSO (Sigma Chemical Co.) with shaking and quantified with a Wallac 1420 Victor plate reader (EG&G Wallac, Gaithersburg, Md.) at 540 nm. For the SRB assay, cells were fixed with 10% trichloroacetic acid (Sigma Chemical Co) for an hour at 4° C. […] The bound dye was measured photometrically with the Wallac Victor plate reader at 515 nm. The ratio of the OD (optical density) value of a compound-treated culture to the OD value of a mock-treated culture, expressed in percentage, was used to quantify the cytotoxicity of a compound. […] For the compounds of the invention, PF50 values were determined by testing with topotecan.

Row | Solubility (Water Solubility Assay) [µg/mL] | solubility at 3 h (Water Solubility Assay) [µg/mL] | Compound | also measured
1 |  | 15500 | CNCc1ccc(-c2[nH]c3cc(F)cc4c3c2CCNC4=O)cc1.CS(=O)(=O)O [Mesylate, 8-Fluoro-2-(4-methylaminomethyl-phenyl)-1,3,4,5-tetrahydro-azepino[5,4,3-cd]indol-6-one Mesylate] | 
2 |  | 1100 | CNCc1ccc(-c2[nH]c3cc(F)cc4c3c2CCNC4=O)cc1.O=C(O)C(O)C(O)C(=O)O [Tartrate, 8-Fluoro-2-(4-methylaminomethyl-phenyl)-1,3,4,5-tetrahydro-azepino[5,4,3-cd]indol-6-one Tartrate] | 

Second part, the compound before the results:

Row | Compound | Solubility (Water Solubility Assay) [µg/mL] | solubility at 3 h (Water Solubility Assay) [µg/mL] | also measured
3 | CNCc1ccc(-c2[nH]c3cc(F)cc4c3c2CCNC4=O)cc1 [Glucuronate, 8-Fluoro-2-(4-methylaminomethyl-phenyl)-1,3,4,5-tetrahydro-azepino[5,4,3-cd]indol-6-one Glucuronate] | 89000 (≈ 275 mM) |  | 
4 | CNCc1ccc(-c2[nH]c3cc(F)cc4c3c2CCNC4=O)cc1 [Gluconate, 8-Fluoro-2-(4-methylaminomethyl-phenyl)-1,3,4,5-tetrahydro-azepino[5,4,3-cd]indol-6-one Gluconate] | >128000 |  | 
5 | CNCc1ccc(-c2[nH]c3cc(F)cc4c3c2CCNC4=O)cc1.Cl [Hydrochloride, 8-Fluoro-2-(4-methylaminomethyl-phenyl)-1,3,4,5-tetrahydro-azepino[5,4,3-cd]indol-6-one Hydrochloride] |  | 1600 | 
6 | CC(=O)O.CNCc1ccc(-c2[nH]c3cc(F)cc4c3c2CCNC4=O)cc1 [Acetate, 8-fluoro-2-(4-methylaminomethyl-phenyl)-1,3,4,5-tetrahydro-azepino[5,4,3-cd]indol-6-one Acetate] |  | 8800 | 
7 | CNCc1ccc(-c2[nH]c3cc(F)cc4c3c2CCNC4=O)cc1 [Phosphate, 8-Fluoro-2-(4-methylaminomethyl-phenyl)-1,3,4,5-tetrahydro-azepino[5,4,3-cd]indol-6-one Phosphate] |  |  | Solubility (Water Solubility Assay; Phosphate): 2800 µg/mL
8 | CNCc1ccc(-c2[nH]c3cc(F)cc4c3c2CCNC4=O)cc1 [Free base, 8-fluoro-2-(4-methylaminomethyl-phenyl)-1,3,4,5-tetrahydro-azepino[5,4,3-cd]indol-6-one] | 180 (≈ 0.557 mM) |  | Cytotoxicity Potentiation PF50 (A549 cells): 2.4
